Reference: article PMC7562719, “Discovery of a CNS penetrant small molecule SMN2 splicing modulator with improved tolerability for spinal muscular atrophy” (Scientific Reports, 2020)
Marks after values point to notes of the source that are not given here.

How the values were obtained:
[1] = tested on: FOXM1b; assay: qPCR of FOXM1b/c variant in GM03813 fibroblasts; type: cell-based, human
Method: (§1) GM03813 fibroblasts, GM24468-derived MNs, NRK-49F, MDCK, CV-1, or NCMDF cells were plated at a density of 0.5 or 1.5 × 10^4, 4 × 10^4, 5 × 10^3, 5 × 10^3, 8 × 10^3, or 6 × 10^3 cells/well on 96-well plates, respectively. After approximately 6 h, the medium was added with the same volume of culture medium containing each compound at the concentration of 0.06, 0.2, 0.6, 0.2, and 6 µM. The final concentration of DMSO was adjusted to 0.1% in culture condition.
(§2) All cells were treated with above compounds for 24 h and washed once with Dulbecco’s Phosphate-Buffered Saline without Ca and Mg [D-PBS (–)] (Wako or Nakarai Tesque). In case of using GM03813 or GM24468-derived MNs, cell lysis and reverse transcription were carried out using SuperPrep Cell Lysis & RT Kit for qPCR in accordance with manufacturer’s recommendations (Toyobo, Japan). qPCR was performed using THUNDERBIRD Probe qPCR Mix (Toyobo). The final concentrations of primers and probes were adjusted to 0.4 µM and 0.15 µM, respectively (Supplementary Table 1). Cycle conditions were as follows; 95 °C for 1 min; followed by 40 cycles of denaturation at 95 °C for 15 s; annealing and elongation at 60 °C for 1 min in the ViiA7 RT-PCR system (Thermo Fisher Scientific). The copy numbers of each target were normalized to those of GAPDH.

[2] = tested on: FOXM1; assay: qPCR of FOXM1 transcripts in cynomolgus monkey fibroblasts (NCMDF); type: cell-based; details: 24 h
Method: as §1
In the instances of using NRK-49F, MDCK, CV-1 or NCMDF, cell lysis and reverse transcription were carried out using Custom Cells to CT Lysis Components (Ambion) and Cells-to-CT RT Components (Ambion), each in accordance with manufacturer’s recommendations. qPCR was conducted using TaqMan Fast Advanced Master Mix. The final concentrations of primers and probes were adjusted to 0.4 µM and 0.15 µM, respectively. Cycle conditions were as follows; 50 °C for 2 min and 95 °C for 2 s; followed by 40 cycles of denaturation at 95 °C for 1 s; annealing and elongation at 60 °C for 20 s in the ABI7900HT RT-PCR system (Applied Biosystems, USA). The relative quantification in gene expression was determined using the 2−ΔΔCt method.

[3] = design: method as in PMID 30044619; details: in vitro and in vivo; cited from earlier work
[4] = tested on: cynomolgus monkeys; details: cynomolgus monkey, in vivo; cited from earlier work
[5] = tested on: FOXM1a; assay: qPCR of FOXM1a variant in GM03813 fibroblasts; type: cell-based, human; details: 24 h, 200% total target mRNA increase, 95% CI in brackets
Method: as §1, §2

[6] = tested on: FL-SMN2 mRNA; assay: qPCR of FL-SMN2 transcripts in SMA type II fibroblasts (GM03813); type: cell-based, human; details: 24 h, 50% total FL-SMN2 mRNA increase, normalized to GAPDH, 95% CI in brackets
Method: as §1, §2

[7] = design: method as in PMID 30302786; details: Phase I clinical trial, 18 mg/individual; cited from earlier work
[8] = tested on: FOXM1ΔC; assay: qPCR of FOXM1ΔC variant in GM03813 fibroblasts; type: cell-based, human; details: 24 h, 300% total target mRNA increase, 95% CI in brackets
Method: as §1, §2

[9] = tested on: TK6 cells; details: positive control 6 µg/mL (21 µM), 3 h + S9 mix
Method: These articles have been recommended for use in the OECD test guideline (Test No. 487)[49]. For metabolic activation, pre-cultured TK6 cells with the culture medium were supplemented with Sprague–Dawley rat liver mix (S9 mix, IEDA TRADING CORPORATION, Japan) at 3.33 vol%. Then, compound was mixed with the cell suspension and treated under the following treatment conditions: • Short-term treatment for 3 h without S9 mix, followed by a 21-h culture (−S9 mix assay), • Short-term treatment for 3 h with S9 mix, followed by a 21-h culture (+S9 mix assay), or • Continuous treatment for 24 h without S9 mix (24-h assay). For treatment conditions 1 and 2, the cells in each well were centrifuged after the 3-h treatment, the supernatants were discarded, and the cells were washed twice with culture medium. The cells were further cultured with fresh culture medium for 21 h. The compound-treated cells were examined by the unaided eye for precipitation of compound at the start and end of treatment. After treatment, the rest of each cell suspension was centrifuged and then the cells were suspended in a 0.075 mol/L KCl solution at room temperature for 10 min. Then, 25 vol% acetic acid containing methanol was added and the centrifuged cells were fixed. The fixed cells were resuspended in a small amount of 3 vol% acetic acid containing methanol, which was changed two times by centrifugation. Finally, a drop of the cell suspension was transferred onto a slide and dried at room temperature. The slides were stained at room temperature in a 3 vol% Giemsa solution (Merck KGaA) diluted with Sörensen phosphate buffer (1/15 mol/L, pH 6.8, Muto Pure Chemicals Co. Ltd.). Four slides per dose (2 slides per well) were prepared. Each slide was coded randomly. The test was conducted at the following doses of TEC-1. -S9 mix assay: 1.5, 1.7, 1.9, 2.1, 2.3, 2.5, 2.7, 2.9, and 3.1 µg/mL, + S9 mix assay: 1.9, 2.1, 2.3, 2.5, 2.7, 2.9, 3.1, 3.3, and 3.5 µg/mL, 24-h assay: 0.9, 1.1, 1.3, 1.5, 1.7, 1.9, 2.1, 2.3, and 2.5 µg/mL. To perform scoring for compound and negative control groups, the number of cells in the suspensions was counted using a Coulter Counter (Z2; Beckman Coulter, Inc.). The positive control groups were not determined. A portion (0.5 mL) of the cell suspension was diluted with 20 mL of Isoton II, and 0.5 mL of this solution was used for cell counts. The cell number per 1 mL at each culture was calculated by the following formula. Cellnumber/mL=Dilutionfactor×valueof1stcount+valueof2ndcount/2×2
The population doubling (PD) and relative population doubling (RPD) at each concentration was calculated by the following formula. PD=log10cell number at the end of culture/cell number at the start of treatment∗/log102∗:1×10^5cells/mL.
RPD%=PD of the compound-treated group/PD of the negative control group×100 For the treated groups, the 3 consecutive concentrations were selected as follows. […] For all concentrations, 4000 mononuclear cells with cytoplasm were analyzed and the number of cells with micronucleus (micronuclei) was counted using a microscope (× 600). Micronucleus is identified as a round or oval small nucleus in the cytoplasm with the same staining intensity as the main nucleus. The diameter of each micronucleus should be less than 1/2 of the diameter of the main nucleus. Two investigators observed the slides. Each investigator scored 1000 cells for the frequency of micronucleated cells. Data from the two investigators were combined for each culture and the combined data from duplicate cultures were pooled for each concentration for each treatment condition. A cell having one or more micronuclei was recorded as a micronucleated cell.

Compound | Selectivity FOXM1b /FL-SMN2 ([1]; EC50 of FOXM1b divided by EC1.5× of FL-SMN2) | EC50 ([1]; Homo sapiens, Fibroblast, GM03813 fibroblasts, 24 h, 50% total target mRNA reduction, 95% CI in brackets) | FOXM1 splicing in cynomolgus monkey cells [2] | micronucleus induction [3] | findings in 39-week toxicological study [4] | EC3.0× FOXM1a [5] | EC1.5× FL-SMN2 [6] | exposure cap, AUC0–24h in plasma [7] | EC4.0× FOXM1ΔC [8] | Micronucleated cells Well 1 [9] | Micronucleated cells Well 2 [9] | Micronucleated cells Total ([9]; counted in 4000 cells) | Micronucleated cells (%) ([9]; p < 0.01)
Cc1cn2nc(-c3cc(=O)n4cc(N5CCNC6(CC6)C5)ccc4n3)cc(C)c2n1 [Risdiplam] | 8 | 124 nM | FOXM1 mis-splicing was similarly observed | induces micronucleation in vitro and in vivo | pathological intestinal and pancreatic changes, and irreversible retinal degeneration | 24.2 (4.49–78.5) nM | 15.8 (8.81–32.8) nM | 1500 ng·h/mL | 38.9 (6.98–85.0) nM | – | – | – | –
O=P1(N(CCCl)CCCl)NCCCO1 (stereo not shown) [CP, cyclophosphamide, reference compound] | – | – | – | – | – | – | – | – | – | 39 | 46 | 85 | (2.13) ** %
